20 molecules from patent publication US20240209001A1, “HETEROCYCLIC DERIVATIVES AS JANUS KINASE INHIBITORS” (CHIESI FARMACEUTICI S.P. A., priority 2021, published 2024) can be followed below.

For assay [1], the target named is JAK 3 (Homo sapiens (Human), UniProt P52333). Description: Biochemical potency on JAK3, TR-FRET LANCE Ultra kinase assay (compounds 1-92). Particulars: ATP at Km, read-out: JAK3 inhibitory activity (pIC50 class) (converted). The gist of the method:
(§1)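 TR-FRET (LANCE Ultra) phosphorylation of ULight-JAK-1 peptide, ATP at Km: JAK1/JAK2/JAK3/TYK2 peptide 30/50/20/10 nM, ATP 20/0.7/0.2/12 μM, enzyme 0.15/0.083/0.025/0.144 ng/μL. 11-point 5-fold series from 20 μM; 1.5 h RT, EDTA stop, Eu-anti-pTyr detection 1 h; IC50 by variable-slope fit.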
For orientation: TR-FRET usually uses a lanthanide donor and a delayed reading to cut background.

For assay [2], the target named is JAK 1 (Homo sapiens (Human), UniProt P23458). Description: Biochemical potency on JAK1, TR-FRET LANCE Ultra kinase assay (compounds 1-92). Particulars: ATP at Km, read-out: JAK1 inhibitory activity (pIC50 class) (converted). The gist of the method: as §1
JAK 1, sequence (P23458 whole entry): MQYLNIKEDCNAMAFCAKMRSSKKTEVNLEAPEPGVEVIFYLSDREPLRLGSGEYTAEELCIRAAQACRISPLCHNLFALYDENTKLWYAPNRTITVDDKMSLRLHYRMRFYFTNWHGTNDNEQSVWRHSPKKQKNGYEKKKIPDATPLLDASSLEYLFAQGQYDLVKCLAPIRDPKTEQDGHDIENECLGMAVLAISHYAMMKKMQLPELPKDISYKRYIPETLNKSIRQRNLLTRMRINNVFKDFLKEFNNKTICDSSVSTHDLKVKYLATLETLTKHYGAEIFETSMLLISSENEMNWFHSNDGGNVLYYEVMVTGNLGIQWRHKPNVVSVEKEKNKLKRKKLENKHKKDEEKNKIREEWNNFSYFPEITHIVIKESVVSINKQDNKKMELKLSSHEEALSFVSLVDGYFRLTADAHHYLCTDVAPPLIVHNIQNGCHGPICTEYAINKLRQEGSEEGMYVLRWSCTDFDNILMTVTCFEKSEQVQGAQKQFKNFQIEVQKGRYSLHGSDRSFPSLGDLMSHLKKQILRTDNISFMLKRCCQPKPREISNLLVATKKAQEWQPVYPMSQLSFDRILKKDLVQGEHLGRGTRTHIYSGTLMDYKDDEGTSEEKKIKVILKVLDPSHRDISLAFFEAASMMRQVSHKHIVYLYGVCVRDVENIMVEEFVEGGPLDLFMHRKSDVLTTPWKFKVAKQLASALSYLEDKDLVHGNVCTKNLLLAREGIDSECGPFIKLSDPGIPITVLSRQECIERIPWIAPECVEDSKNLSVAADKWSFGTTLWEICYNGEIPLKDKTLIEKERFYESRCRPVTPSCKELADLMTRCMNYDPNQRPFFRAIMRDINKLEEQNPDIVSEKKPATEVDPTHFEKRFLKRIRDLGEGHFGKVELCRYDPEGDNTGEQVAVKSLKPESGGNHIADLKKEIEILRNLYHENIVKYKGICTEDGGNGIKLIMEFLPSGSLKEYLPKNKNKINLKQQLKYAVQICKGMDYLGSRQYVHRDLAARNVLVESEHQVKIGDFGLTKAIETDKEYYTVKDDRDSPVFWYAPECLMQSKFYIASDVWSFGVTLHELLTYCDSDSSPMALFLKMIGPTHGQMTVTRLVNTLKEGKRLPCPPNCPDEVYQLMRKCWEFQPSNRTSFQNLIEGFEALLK
In assay [3] the target is JAK 2 (Homo sapiens (Human), UniProt O60674). Description: Biochemical potency on JAK2, TR-FRET LANCE Ultra kinase assay (compounds 1-92). Particulars: ATP at Km, read-out: JAK2 inhibitory activity (pIC50 class) (converted). The essentials:
as §1

The target in assay [4] is TYK2 (Homo sapiens (Human), UniProt P29597). Description: Biochemical potency on Tyk2, TR-FRET LANCE Ultra kinase assay (compounds 1-92). Particulars: ATP at Km, read-out: Tyk2 inhibitory activity (pIC50 class) (converted). The gist of the method: as §1
TYK2, sequence (P29597 whole entry): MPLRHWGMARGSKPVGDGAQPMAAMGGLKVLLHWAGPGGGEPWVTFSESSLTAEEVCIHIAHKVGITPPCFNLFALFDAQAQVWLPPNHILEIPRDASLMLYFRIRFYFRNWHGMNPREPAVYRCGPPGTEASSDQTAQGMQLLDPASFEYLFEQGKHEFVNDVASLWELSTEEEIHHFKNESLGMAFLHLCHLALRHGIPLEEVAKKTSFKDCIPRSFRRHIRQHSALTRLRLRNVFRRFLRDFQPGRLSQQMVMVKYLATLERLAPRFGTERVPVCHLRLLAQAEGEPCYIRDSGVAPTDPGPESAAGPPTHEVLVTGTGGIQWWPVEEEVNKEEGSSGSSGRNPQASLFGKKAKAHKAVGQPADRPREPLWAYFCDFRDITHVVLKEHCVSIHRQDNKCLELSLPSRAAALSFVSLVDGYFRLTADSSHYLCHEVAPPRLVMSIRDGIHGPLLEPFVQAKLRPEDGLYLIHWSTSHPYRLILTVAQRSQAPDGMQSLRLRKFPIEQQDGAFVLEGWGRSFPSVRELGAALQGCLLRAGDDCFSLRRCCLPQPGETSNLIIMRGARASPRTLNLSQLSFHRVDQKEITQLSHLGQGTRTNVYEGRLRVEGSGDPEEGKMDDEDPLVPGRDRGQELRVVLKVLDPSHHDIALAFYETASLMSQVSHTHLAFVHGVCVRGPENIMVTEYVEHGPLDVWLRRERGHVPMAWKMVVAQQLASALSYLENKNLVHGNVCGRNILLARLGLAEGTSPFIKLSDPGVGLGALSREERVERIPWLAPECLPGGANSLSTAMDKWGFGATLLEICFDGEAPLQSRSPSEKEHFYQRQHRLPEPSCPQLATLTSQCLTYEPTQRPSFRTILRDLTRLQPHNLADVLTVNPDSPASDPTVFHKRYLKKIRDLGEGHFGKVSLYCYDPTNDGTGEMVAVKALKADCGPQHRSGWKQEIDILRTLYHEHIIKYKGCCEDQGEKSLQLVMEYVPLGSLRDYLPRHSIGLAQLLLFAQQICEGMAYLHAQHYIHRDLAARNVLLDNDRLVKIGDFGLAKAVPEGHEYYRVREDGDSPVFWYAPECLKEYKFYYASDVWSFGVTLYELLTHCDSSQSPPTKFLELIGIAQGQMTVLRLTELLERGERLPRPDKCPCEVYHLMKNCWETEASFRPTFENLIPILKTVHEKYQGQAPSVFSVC

JAK 3, sequence (P52333 whole entry): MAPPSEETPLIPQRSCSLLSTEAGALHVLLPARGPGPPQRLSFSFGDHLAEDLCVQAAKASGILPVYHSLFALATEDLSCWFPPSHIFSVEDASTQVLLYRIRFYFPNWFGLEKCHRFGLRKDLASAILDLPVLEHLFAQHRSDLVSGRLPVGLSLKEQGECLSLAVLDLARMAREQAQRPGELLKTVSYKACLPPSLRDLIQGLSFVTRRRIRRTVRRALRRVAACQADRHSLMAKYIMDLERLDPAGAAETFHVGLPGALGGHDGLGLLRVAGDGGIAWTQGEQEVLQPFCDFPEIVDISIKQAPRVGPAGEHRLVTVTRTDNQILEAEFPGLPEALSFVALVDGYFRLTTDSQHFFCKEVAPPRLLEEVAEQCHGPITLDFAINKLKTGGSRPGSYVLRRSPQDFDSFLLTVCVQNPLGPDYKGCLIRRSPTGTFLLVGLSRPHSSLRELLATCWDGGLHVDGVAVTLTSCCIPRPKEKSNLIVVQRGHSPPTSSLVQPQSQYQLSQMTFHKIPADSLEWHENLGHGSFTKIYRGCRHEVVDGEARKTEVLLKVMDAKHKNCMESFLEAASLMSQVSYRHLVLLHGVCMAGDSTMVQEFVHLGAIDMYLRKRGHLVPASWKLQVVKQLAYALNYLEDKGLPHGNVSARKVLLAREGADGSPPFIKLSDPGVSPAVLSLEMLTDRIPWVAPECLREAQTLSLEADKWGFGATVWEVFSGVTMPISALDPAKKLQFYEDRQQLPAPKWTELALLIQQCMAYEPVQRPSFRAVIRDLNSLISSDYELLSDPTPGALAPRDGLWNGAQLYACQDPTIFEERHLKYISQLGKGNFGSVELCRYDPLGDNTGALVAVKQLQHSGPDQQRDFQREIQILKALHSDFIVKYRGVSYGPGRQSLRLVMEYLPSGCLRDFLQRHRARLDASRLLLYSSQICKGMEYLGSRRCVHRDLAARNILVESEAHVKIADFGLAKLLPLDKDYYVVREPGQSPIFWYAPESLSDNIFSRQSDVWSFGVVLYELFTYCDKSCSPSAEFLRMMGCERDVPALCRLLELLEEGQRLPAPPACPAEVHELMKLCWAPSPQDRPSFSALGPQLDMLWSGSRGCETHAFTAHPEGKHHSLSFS
JAK 2, sequence (O60674 whole entry): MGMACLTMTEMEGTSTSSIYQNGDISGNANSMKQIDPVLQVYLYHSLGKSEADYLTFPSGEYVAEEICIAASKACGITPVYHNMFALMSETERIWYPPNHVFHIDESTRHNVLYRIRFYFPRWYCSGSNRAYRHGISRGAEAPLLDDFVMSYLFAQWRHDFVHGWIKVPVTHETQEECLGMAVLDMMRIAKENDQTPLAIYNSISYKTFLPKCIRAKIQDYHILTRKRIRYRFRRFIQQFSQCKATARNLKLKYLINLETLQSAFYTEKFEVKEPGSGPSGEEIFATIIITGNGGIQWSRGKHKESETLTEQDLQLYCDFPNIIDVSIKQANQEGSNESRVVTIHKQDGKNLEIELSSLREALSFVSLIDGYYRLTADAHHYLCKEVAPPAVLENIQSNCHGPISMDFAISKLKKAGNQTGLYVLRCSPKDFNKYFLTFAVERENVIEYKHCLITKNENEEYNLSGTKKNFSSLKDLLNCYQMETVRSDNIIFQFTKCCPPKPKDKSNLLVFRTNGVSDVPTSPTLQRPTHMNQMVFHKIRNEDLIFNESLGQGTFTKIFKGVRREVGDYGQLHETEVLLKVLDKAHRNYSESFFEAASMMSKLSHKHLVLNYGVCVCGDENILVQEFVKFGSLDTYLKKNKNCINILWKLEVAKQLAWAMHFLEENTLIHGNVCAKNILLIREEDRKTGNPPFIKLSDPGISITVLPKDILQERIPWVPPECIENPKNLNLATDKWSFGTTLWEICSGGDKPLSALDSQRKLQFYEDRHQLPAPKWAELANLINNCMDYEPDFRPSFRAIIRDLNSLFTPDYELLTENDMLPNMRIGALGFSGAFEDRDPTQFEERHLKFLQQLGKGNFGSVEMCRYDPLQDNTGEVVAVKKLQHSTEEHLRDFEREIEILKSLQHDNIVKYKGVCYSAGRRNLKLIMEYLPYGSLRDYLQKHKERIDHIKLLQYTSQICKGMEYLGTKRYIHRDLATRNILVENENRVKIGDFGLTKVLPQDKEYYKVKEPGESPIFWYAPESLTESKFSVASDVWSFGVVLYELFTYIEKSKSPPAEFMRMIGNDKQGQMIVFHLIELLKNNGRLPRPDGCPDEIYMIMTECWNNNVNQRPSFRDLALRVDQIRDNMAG

Turning to `COc1cc(CNS(=O)(=O)CC#N)ccc1-n1nc(C)c2cnc(-c3cnn4cccnc34)cc21` [Example 68, 1-cyano-N-(3-methoxy-4-(3-methyl-6-(pyrazolo[1,5-a]pyrimidin-3-yl)-1H-pyrazolo[4,3-c]pyridin-1-yl)benzyl)methanesulfonamide], the IC50 in assay [1] was at most 5.01 nM; in assay [2], at most 5.01 nM; in assay [3], at most 5.01 nM; in assay [4], 5.01 to 50.1 nM.
Turning to `COC(=O)NCc1ccc(-n2nc(C)c3cnc(-c4cnn5cccnc45)cc32)c(OC)c1` [Example 69, methyl (3-methoxy-4-(3-methyl-6-(pyrazolo[1,5-a]pyrimidin-3-yl)-1H-pyrazolo[4,3-c]pyridin-1-yl)benzyl)carbamate], the IC50 in assay [1] is 5.01 to 50.1 nM; in assay [2] it was above 50.1 nM; in assay [3], 5.01 to 50.1 nM; in assay [4], above 50.1 nM.
`COc1cc(CNC(C)=O)ccc1-n1nc(C)c2cnc(-c3cnn4cccnc34)cc21` [Example 70, N-(3-methoxy-4-(3-methyl-6-(pyrazolo[1,5-a]pyrimidin-3-yl)-1H-pyrazolo[4,3-c]pyridin-1-yl)benzyl)acetamide]: the IC50 in assay [1], in assay [2], in assay [3] and in assay [4] was above 50.1 nM in each case.
Take `CNC(=O)NCc1ccc(-n2nc(C)c3cnc(-c4cnn5cccnc45)cc32)c(OC)c1` [Example 71, 1-(3-methoxy-4-(3-methyl-6-(pyrazolo[1,5-a]pyrimidin-3-yl)-1H-pyrazolo[4,3-c]pyridin-1-yl)benzyl)-3-methylurea]: the IC50 was 5.01 to 50.1 nM in assay [1], 5.01 to 50.1 nM in assay [2], 5.01 to 50.1 nM in assay [3] and above 50.1 nM in assay [4].
Take `COc1cc(CNC(=O)Nc2ccccc2)ccc1-n1nc(C)c2cnc(-c3cnn4cccnc34)cc21` [Example 72, 1-(3-methoxy-4-(3-methyl-6-(pyrazolo[1,5-a]pyrimidin-3-yl)-1H-pyrazolo[4,3-c]pyridin-1-yl)benzyl)-3-phenylurea]: the IC50 was 5.01 to 50.1 nM in assay [1], above 50.1 nM in assay [2], 5.01 to 50.1 nM in assay [3] and above 50.1 nM in assay [4].
Regarding `COc1cc(NS(=O)(=O)CC(F)F)ccc1-n1nc(C)c2cnc(-c3cnn4cccnc34)cc21` [Example 73, 2,2-difluoro-N-(3-methoxy-4-(3-methyl-6-(pyrazolo[1,5-a]pyrimidin-3-yl)-1H-pyrazolo[4,3-c]pyridin-1-yl)phenyl)ethane-1-sulfonamide], the IC50 in assay [1] was 5.01 to 50.1 nM; in assay [2], at most 5.01 nM; in assay [3] it was 5.01 to 50.1 nM; in assay [4] it was 5.01 to 50.1 nM.
In the case of `COc1cc(NC(=O)c2ccccc2)ccc1-n1nc(C)c2cnc(-c3cnn4cccnc34)cc21` [Example 74, N-(3-methoxy-4-(3-methyl-6-(pyrazolo[1,5-a]pyrimidin-3-yl)-1H-pyrazolo[4,3-c]pyridin-1-yl)phenyl)benzamide], the IC50 is 5.01 to 50.1 nM in assay [1], 5.01 to 50.1 nM in assay [2], 5.01 to 50.1 nM in assay [3] and above 50.1 nM in assay [4].
As to `COc1cc(NC(=O)c2ccccc2)ccc1-n1nc(NCCN(C)C)c2cnc(-c3cnn4cccnc34)cc21` [Example 75, N-(4-(3-((2-(dimethylamino)ethyl)amino)-6-(pyrazolo[1,5-a]pyrimidin-3-yl)-1H-pyrazolo[4,3-c]pyridin-1-yl)-3-methoxyphenyl)benzamide], the IC50 in assay [1] is 5.01 to 50.1 nM; in assay [2], 5.01 to 50.1 nM; in assay [3], 5.01 to 50.1 nM; in assay [4], above 50.1 nM.
Turning to `COc1cc(NS(C)(=O)=O)ccc1-n1nc(NCCN2CCOCC2)c2cnc(-c3cnc4cccnn34)cc21` [Example 76, N-(4-(6-(imidazo[1,2-b]pyridazin-3-yl)-3-((2-morpholinoethyl)amino)-1H-pyrazolo[4,3-c]pyridin-1-yl)-3-methoxyphenyl)methanesulfonamide], the IC50 in assay [1] was at most 5.01 nM; in assay [2], at most 5.01 nM; in assay [3] it was at most 5.01 nM; in assay [4], 5.01 to 50.1 nM.
Take `COc1cc(NS(C)(=O)=O)ccc1-n1nc(NCCN(C)C)c2cnc(-c3cnc4cccnn34)cc21` [Example 77, N-(4-(3-((2-(dimethylamino)ethyl)amino)-6-(imidazo[1,2-b]pyridazin-3-yl)-1H-pyrazolo[4,3-c]pyridin-1-yl)-3-methoxyphenyl)methanesulfonamide]: the IC50 in assay [1] was at most 5.01 nM; in assay [2], at most 5.01 nM; in assay [3], at most 5.01 nM; in assay [4], 5.01 to 50.1 nM.
As to `COc1cc(NS(=O)(=O)C2CC2)ccc1-n1nc(N[C@H]2C[C@@H](N(C)C)C2)c2cnc(-c3cnn4cccnc34)cc21` [Example 78, N-(4-(3-(((1s,3s)-3-(dimethylamino)cyclobutyl)amino)-6-(pyrazolo[1,5-a]pyrimidin-3-yl)-1H-pyrazolo[4,3-c]pyridin-1-yl)-3-methoxyphenyl)cyclopropanesulfonamide], the IC50 in assay [1] is at most 5.01 nM; in assay [2] it was at most 5.01 nM; in assay [3], at most 5.01 nM; in assay [4], 5.01 to 50.1 nM.
Regarding `COc1cc(NS(C)(=O)=O)ccc1-n1nc(N)c2cnc(-c3cnn4cccnc34)cc21` [Example 79, N-(4-(3-amino-6-(pyrazolo[1,5-a]pyrimidin-3-yl)-1H-pyrazolo[4,3-c]pyridin-1-yl)-3-methoxyphenyl)methanesulfonamide], the IC50 in assay [1] is at most 5.01 nM; in assay [2] it was at most 5.01 nM; in assay [3] it was at most 5.01 nM; in assay [4] it was 5.01 to 50.1 nM.
Turning to `CNCC(=O)Nc1nn(-c2ccc(NS(C)(=O)=O)cc2OC)c2cc(-c3cnn4cccnc34)ncc12` [Example 80, N-(1-(2-methoxy-4-(methylsulfonamido)phenyl)-6-(pyrazolo[1,5-a]pyrimidin-3-yl)-1H-pyrazolo[4,3-c]pyridin-3-yl)-2-(methylamino)acetamide], the IC50 in assay [1] is at most 5.01 nM; in assay [2], at most 5.01 nM; in assay [3], at most 5.01 nM; in assay [4] it was 5.01 to 50.1 nM.
As for `COc1cc(NS(C)(=O)=O)ccc1-n1nc(NC(=O)CN2CCN(C)CC2)c2cnc(-c3cnn4cccnc34)cc21` [Example 81, N-(1-(2-methoxy-4-(methylsulfonamido)phenyl)-6-(pyrazolo[1,5-a]pyrimidin-3-yl)-1H-pyrazolo[4,3-c]pyridin-3-yl)-2-(4-methylpiperazin-1-yl)acetamide], the IC50 in assay [1] was at most 5.01 nM; in assay [2] it was at most 5.01 nM; in assay [3], at most 5.01 nM; in assay [4], 5.01 to 50.1 nM.
With `CCCS(=O)(=O)Nc1ccc(-n2nc(NC(=O)CCN3CCN(C)CC3)c3cnc(-c4cnn5cccnc45)cc32)c(OC)c1` [Example 82, N-(1-(2-methoxy-4-(propylsulfonamido)phenyl)-6-(pyrazolo[1,5-a]pyrimidin-3-yl)-1H-pyrazolo[4,3-c]pyridin-3-yl)-3-(4-methylpiperazin-1-yl)propanamide], the IC50 in assay [1], in assay [2], in assay [3] and in assay [4] was 5.01 to 50.1 nM in each case.
Turning to `CCCS(=O)(=O)Nc1ccc(-n2nc(CNC)c3cnc(-c4cnn5cccnc45)cc32)c(OC)c1` [Example 83, N-(3-methoxy-4-(3-((methylamino)methyl)-6-(pyrazolo[1,5-a]pyrimidin-3-yl)-1H-pyrazolo[4,3-c]pyridin-1-yl)phenyl)propane-1-sulfonamide], the IC50 is at most 5.01 nM in assay [1], at most 5.01 nM in assay [2], at most 5.01 nM in assay [3] and 5.01 to 50.1 nM in assay [4].
As to `COc1cc(NS(=O)(=O)C2CC2)ccc1-n1nc(CC#N)c2cnc(-c3cnn4cccnc34)cc21` [Example 84, N-(4-(3-(cyanomethyl)-6-(pyrazolo[1,5-a]pyrimidin-3-yl)-1H-pyrazolo[4,3-c]pyridin-1-yl)-3-methoxyphenyl)cyclopropanesulfonamide], the IC50 in assay [1] was 5.01 to 50.1 nM; in assay [2], at most 5.01 nM; in assay [3], at most 5.01 nM; in assay [4], 5.01 to 50.1 nM.
Consider `COc1cc(NS(C)(=O)=O)ccc1-n1nc(C)c2cnc(Nc3ncc[nH]c3=O)cc21` [Example 85, N-(3-methoxy-4-(3-methyl-6-((3-oxo-3,4-dihydropyrazin-2-yl)amino)-1H-pyrazolo[4,3-c]pyridin-1-yl)phenyl)methanesulfonamide], for which the IC50 in assay [1], in assay [2], in assay [3] and in assay [4] was at most 5.01 nM each time.
For the molecule `COc1cc(NS(=O)(=O)c2cnn(C)c2)ccc1-n1nc(C)c2cnc(Nc3ncc[nH]c3=O)cc21` [Example 86, N-(3-methoxy-4-(3-methyl-6-((3-oxo-3,4-dihydropyrazin-2-yl)amino)-1H-pyrazolo[4,3-c]pyridin-1-yl)phenyl)-1-methyl-1H-pyrazole-4-sulfonamide], the IC50 was at most 5.01 nM in assay [1], 5.01 to 50.1 nM in assay [2], at most 5.01 nM in assay [3] and 5.01 to 50.1 nM in assay [4].
With `COc1cc(NS(C)(=O)=O)ccc1-n1nc(NCCN2CCOCC2)c2cnc(Nc3ncc[nH]c3=O)cc21` [Example 87, N-(3-methoxy-4-(3-((2-morpholinoethyl)amino)-6-((3-oxo-3,4-dihydropyrazin-2-yl)amino)-1H-pyrazolo[4,3-c]pyridin-1-yl)phenyl)methanesulfonamide], the IC50 in assay [1], in assay [2], in assay [3] and in assay [4] was at most 5.01 nM throughout.
